Laboratory results: ChEMBL document CHEMBL4765227, “Hit to lead optimization of a series of N-[4-(1,3-benzothiazol-2-yl)phenyl]acetamides as monoacylglycerol lipase inhibitors with potential anticancer activity” (Eur J Med Chem, 2016)

Columns and labels:
Type in all cases: functional
Details in all cases: read-out: GI
U-251 = assay: Growth inhibition of human U-251 cells at 10 uM incubated for 48 hrs by sulforhodamine B assay relative to control
786-0 = assay: Growth inhibition of human 786-0 cells at 10 uM incubated for 48 hrs by sulforhodamine B assay relative to control
CAKI-1 = assay: Growth inhibition of human CAKI-1 cells at 10 uM incubated for 48 hrs by sulforhodamine B assay relative to control
MDA-MB-468 = assay: Growth inhibition of human MDA-MB-468 cells at 10 uM incubated for 48 hrs by sulforhodamine B assay relative to control
MOLT-4 = assay: Growth inhibition of human MOLT-4 cells at 10 uM incubated for 48 hrs by sulforhodamine B assay relative to control
NCI-H226 = assay: Growth inhibition of human NCI-H226 cells at 10 uM incubated for 48 hrs by sulforhodamine B assay relative to control
RPMI-8226 = assay: Growth inhibition of human RPMI-8226 cells at 10 uM incubated for 48 hrs by sulforhodamine B assay relative to control
SK-MEL-28 = assay: Growth inhibition of human SK-MEL-28 cells at 10 uM incubated for 48 hrs by sulforhodamine B assay relative to control
MCF7 = assay: Growth inhibition of human MCF7 cells at 10 uM incubated for 48 hrs by sulforhodamine B assay relative to control
OVCAR-4 = assay: Growth inhibition of human OVCAR-4 cells at 10 uM incubated for 48 hrs by sulforhodamine B assay relative to control
UACC-257 = assay: Growth inhibition of human UACC-257 cells at 10 uM incubated for 48 hrs by sulforhodamine B assay relative to control
IGROV-1 = assay: Growth inhibition of human IGROV-1 cells at 10 uM incubated for 48 hrs by sulforhodamine B assay relative to control
OVCAR-3 = assay: Growth inhibition of human OVCAR-3 cells at 10 uM incubated for 48 hrs by sulforhodamine B assay relative to control
UACC-62 = assay: Growth inhibition of human UACC-62 cells at 10 uM incubated for 48 hrs by sulforhodamine B assay relative to control
CCRF-CEM = assay: Growth inhibition of human CCRF-CEM cells at 10 uM incubated for 48 hrs by sulforhodamine B assay relative to control
DU-145 = assay: Growth inhibition of human DU-145 cells at 10 uM incubated for 48 hrs by sulforhodamine B assay relative to control
BT-549 = assay: Growth inhibition of human BT-549 cells at 10 uM incubated for 48 hrs by sulforhodamine B assay relative to control
Hs-578T = assay: Growth inhibition of human Hs-578T cells at 10 uM incubated for 48 hrs by sulforhodamine B assay relative to control
HOP-92 = assay: Growth inhibition of human HOP-92 cells at 10 uM incubated for 48 hrs by sulforhodamine B assay relative to control
SNB-19 = assay: Growth inhibition of human SNB-19 cells at 10 uM incubated for 48 hrs by sulforhodamine B assay relative to control
SK-MEL-5 = assay: Growth inhibition of human SK-MEL-5 cells at 10 uM incubated for 48 hrs by sulforhodamine B assay relative to control
HOP-62 = assay: Growth inhibition of human HOP-62 cells at 10 uM incubated for 48 hrs by sulforhodamine B assay relative to control
TK-10 = assay: Growth inhibition of human TK-10 cells at 10 uM incubated for 48 hrs by sulforhodamine B assay relative to control
A549 = assay: Growth inhibition of human A549/ATCC cells at 10 uM incubated for 48 hrs by sulforhodamine B assay relative to control
SNB-75 = assay: Growth inhibition of human SNB-75 cells at 10 uM incubated for 48 hrs by sulforhodamine B assay relative to control
HCT-15 = assay: Growth inhibition of human HCT-15 cells at 10 uM incubated for 48 hrs by sulforhodamine B assay relative to control
NCI/ADR-RES = assay: Growth inhibition of human NCI/ADR-RES cells at 10 uM incubated for 48 hrs by sulforhodamine B assay relative to control
HL-60(TB) = assay: Growth inhibition of human HL-60(TB) cells at 10 uM incubated for 48 hrs by sulforhodamine B assay relative to control
SK-OV-3 = assay: Growth inhibition of human SK-OV-3 cells at 10 uM incubated for 48 hrs by sulforhodamine B assay relative to control
HT-29 = assay: Growth inhibition of human HT-29 cells at 10 uM incubated for 48 hrs by sulforhodamine B assay relative to control
M14 = assay: Growth inhibition of human M14 cells at 10 uM incubated for 48 hrs by sulforhodamine B assay relative to control
COLO 205 = assay: Growth inhibition of human COLO 205 cells at 10 uM incubated for 48 hrs by sulforhodamine B assay relative to control
T47D = assay: Growth inhibition of human T47D cells at 10 uM incubated for 48 hrs by sulforhodamine B assay relative to control
SF-295 = assay: Growth inhibition of human SF-295 cells at 10 uM incubated for 48 hrs by sulforhodamine B assay relative to control
RXF 393 = assay: Growth inhibition of human RXF 393 cells at 10 uM incubated for 48 hrs by sulforhodamine B assay relative to control
PC-3 = assay: Growth inhibition of human PC-3 cells at 10 uM incubated for 48 hrs by sulforhodamine B assay relative to control
LOX IMVI = assay: Growth inhibition of human LOX IMVI cells at 10 uM incubated for 48 hrs by sulforhodamine B assay relative to control
Malme-3M = assay: Growth inhibition of human Malme-3M cells at 10 uM incubated for 48 hrs by sulforhodamine B assay relative to control
HCT-116 = assay: Growth inhibition of human HCT-116 cells at 10 uM incubated for 48 hrs by sulforhodamine B assay relative to control
HCC 2998 = assay: Growth inhibition of human HCC 2998 cells at 10 uM incubated for 48 hrs by sulforhodamine B assay relative to control
ACHN = assay: Growth inhibition of human ACHN cells at 10 uM incubated for 48 hrs by sulforhodamine B assay relative to control
SF-268 = assay: Growth inhibition of human SF-268 cells at 10 uM incubated for 48 hrs by sulforhodamine B assay relative to control
SR = assay: Growth inhibition of human SR cells at 10 uM incubated for 48 hrs by sulforhodamine B assay relative to control
OVCAR-5 = assay: Growth inhibition of human OVCAR-5 cells at 10 uM incubated for 48 hrs by sulforhodamine B assay relative to control

Compound `O=C(CN1CCCCC1)Nc1ccc(-c2nc3ccccc3s2)cc1` has an inhibition of growth at 10 µM (U-251) of 22.8%, an inhibition of growth at 10 µM (786-0) of 13.9% and an inhibition of growth at 10 µM (CAKI-1) of 9.3%. It also gave an inhibition of growth at 10 µM (MDA-MB-468) of 73.7%, an inhibition of growth at 10 µM (MOLT-4) of 14.3% and an inhibition of growth at 10 µM (NCI-H226) of 11.3%. For the same compound, the inhibition of growth at 10 µM (RPMI-8226) was 11.3%, the inhibition of growth at 10 µM (SK-MEL-28) was -9.51% and the inhibition of growth at 10 µM (MCF7) was 75.1%. For the same compound, the inhibition of growth at 10 µM (OVCAR-4) was 4.89%, the inhibition of growth at 10 µM (UACC-257) was 2.05% and the inhibition of growth at 10 µM (IGROV-1) was -10.3%. The inhibition of growth at 10 µM (OVCAR-3) was -0.25%, the inhibition of growth at 10 µM (UACC-62) was 5.84% and the inhibition of growth at 10 µM (CCRF-CEM) was 10.4%. It also gave an inhibition of growth at 10 µM (DU-145) of 0.74%, an inhibition of growth at 10 µM (BT-549) of 1.67% and an inhibition of growth at 10 µM (Hs-578T) of 12.6%. The inhibition of growth at 10 µM (HOP-92) was 44.5%, the inhibition of growth at 10 µM (SNB-19) was -0.02% and the inhibition of growth at 10 µM (SK-MEL-5) was 9.16%. For the same compound, the inhibition of growth at 10 µM (HOP-62) was 7.87%, the inhibition of growth at 10 µM (TK-10) was -14.8% and the inhibition of growth at 10 µM (A549) was 5.89%. For the same compound, the inhibition of growth at 10 µM (SNB-75) was 1.53%, the inhibition of growth at 10 µM (HCT-15) was 28% and the inhibition of growth at 10 µM (NCI/ADR-RES) was 6.26%. It also gave an inhibition of growth at 10 µM (HL-60(TB)) of 15.8%, an inhibition of growth at 10 µM (SK-OV-3) of 4.61% and an inhibition of growth at 10 µM (HT-29) of 42.2%. For the same compound, the inhibition of growth at 10 µM (M14) was -5.76%, the inhibition of growth at 10 µM (COLO 205) was -5.35% and the inhibition of growth at 10 µM (T47D) was 17.8%. It also gave an inhibition of growth at 10 µM (SF-295) of 4.43%, an inhibition of growth at 10 µM (RXF 393) of 13% and an inhibition of growth at 10 µM (PC-3) of 15.5%. For the same compound, the inhibition of growth at 10 µM (LOX IMVI) was 21%, the inhibition of growth at 10 µM (Malme-3M) was -9.17% and the inhibition of growth at 10 µM (HCT-116) was 5.5%. The inhibition of growth at 10 µM (HCC 2998) was 9.72%, the inhibition of growth at 10 µM (ACHN) was -5.42% and the inhibition of growth at 10 µM (SF-268) was 0.48%. For the same compound, the inhibition of growth at 10 µM (SR) was 56% and the inhibition of growth at 10 µM (OVCAR-5) was -4.63%.

Compound `Cc1cc(C)n(CC(=O)Nc2ccc(-c3nc4ccccc4s3)cc2)n1` has an inhibition of growth at 10 µM (U-251) of 10.3%, an inhibition of growth at 10 µM (786-0) of -5.8% and an inhibition of growth at 10 µM (CAKI-1) of -1.54%. It also gave an inhibition of growth at 10 µM (MDA-MB-468) of 103%, an inhibition of growth at 10 µM (MOLT-4) of 16% and an inhibition of growth at 10 µM (NCI-H226) of -0.25%. It also gave an inhibition of growth at 10 µM (RPMI-8226) of 2.85%, an inhibition of growth at 10 µM (SK-MEL-28) of -8.88% and an inhibition of growth at 10 µM (MCF7) of 73.4%. The inhibition of growth at 10 µM (OVCAR-4) was 2.19%, the inhibition of growth at 10 µM (UACC-257) was -7.21% and the inhibition of growth at 10 µM (IGROV-1) was 2.57%. For the same compound, the inhibition of growth at 10 µM (OVCAR-3) was -1.21%, the inhibition of growth at 10 µM (UACC-62) was 4.67% and the inhibition of growth at 10 µM (CCRF-CEM) was 1.49%. For the same compound, the inhibition of growth at 10 µM (DU-145) was -2.89%, the inhibition of growth at 10 µM (BT-549) was -15.3% and the inhibition of growth at 10 µM (Hs-578T) was -13.4%. The inhibition of growth at 10 µM (HOP-92) was 2.31%, the inhibition of growth at 10 µM (SNB-19) was 0.22% and the inhibition of growth at 10 µM (SK-MEL-5) was 3.6%. The inhibition of growth at 10 µM (HOP-62) was -5.06%, the inhibition of growth at 10 µM (TK-10) was -6.36% and the inhibition of growth at 10 µM (A549) was 5.29%. It also gave an inhibition of growth at 10 µM (SNB-75) of -0.57%, an inhibition of growth at 10 µM (HCT-15) of -5.24% and an inhibition of growth at 10 µM (NCI/ADR-RES) of -2.56%. It also gave an inhibition of growth at 10 µM (HL-60(TB)) of -2.97%, an inhibition of growth at 10 µM (SK-OV-3) of -14% and an inhibition of growth at 10 µM (HT-29) of -8.3%. It also gave an inhibition of growth at 10 µM (M14) of -11.3%, an inhibition of growth at 10 µM (COLO 205) of -12.4% and an inhibition of growth at 10 µM (T47D) of 6.7%. The inhibition of growth at 10 µM (SF-295) was -3.17%, the inhibition of growth at 10 µM (RXF 393) was -29% and the inhibition of growth at 10 µM (PC-3) was 13.2%. The inhibition of growth at 10 µM (LOX IMVI) was 2.33%, the inhibition of growth at 10 µM (Malme-3M) was -7.85% and the inhibition of growth at 10 µM (HCT-116) was -7.45%. For the same compound, the inhibition of growth at 10 µM (HCC 2998) was 7.15%, the inhibition of growth at 10 µM (ACHN) was -14.4% and the inhibition of growth at 10 µM (SF-268) was -0.26%. It also gave an inhibition of growth at 10 µM (SR) of 0.6% and an inhibition of growth at 10 µM (OVCAR-5) of -4.65%.
